Measurements published in article PMC8000041, “New Insights into the Metabolism of the Flavanones Eriocitrin and Hesperidin: A Comparative Human Pharmacokinetic Study” (Antioxidants, 2021).
Like-named read-outs stand apart in the source and are kept apart here.

Legend:
[1] = set-up: method as in PMID 28970059; details: eriocitrin vs. hesperidin ref 28; cited from earlier work
[2] = Urinary excretion of flavanone-derived metabolites after single intake of lemon or orange extract (UPLC-ESI-QTOF-MS); type: in vivo, human; details: for Occurrence Urine LE (number of volunteers in whom the metabolite was detected): after consuming lemon extract; for Occurrence Urine LE (number of volunteers in whom the metabolite was detected) / Occurrence Urine OE (number of volunteers in whom the metabolite was detected): n = 16 volunteers; for Occurrence Urine OE (number of volunteers in whom the metabolite was detected): after consuming orange extract; for Urinary excretion F1: urine fraction 0-4 h; for Urinary excretion F1 / Urinary excretion Total F / Urinary excretion F2 / Urinary excretion F3 / Urinary excretion F4: mean ± SD; for Urinary excretion Total F: sum of fractions F1-F4 (24 h); for Urinary excretion F2: urine fraction 4-8 h; for Urinary excretion F3: urine fraction 8-10 h; for Urinary excretion F4: urine fraction 10-24 h
Source text: Secondary endpoints involved the evaluation of post-prandial changes in several biomarkers dealing with metabolism, inflammation, and oxidative stress after a high-fat-high-sugars meal. The design was a randomized pharmacokinetic, double-blind, crossover, single-dose trial consisted of 2 test-phases. The volunteers were randomly allocated into two groups using a computerized random number list. Each group consumed one of the citrus extracts by following a test-phase that lasted for 1 day for blood sampling and urine collection, a 2-week washout period between each test phase, and crossover before consuming the other extract. The volunteers were instructed to avoid the consumption of flavanone-containing products, from a list provided by the researchers, for 1 week before the study and during the wash-out phase (citrus fruit juices, tomatoes, tomato-based sauces (like ‘ketchup’), peppers, almonds, etc.). […] The 3 capsules provided a total of 1.95 g orange extract, containing 260 mg hesperidin, and 3.1 g lemon extract, containing 260 mg eriocitrin. […] Untreated urine samples were aliquoted and frozen at −80 °C for up to 4 weeks until analyses, avoiding freeze-thaw cycles to avoid metabolites’ deconjugation. Moreover, three measurements of blood pressure and heart rate were taken before each time-point of blood withdrawal. […] A previously validated method for analyzing phenolic metabolites in biological samples, including flavanone-derived metabolites, was used. […] After centrifugation at 14,000× g for 10 min at 4 °C, the supernatant was evaporated in a speed vacuum concentrator. Finally, samples were re-suspended in 100 µL of methanol, filtered through a 0.22 µm cellulose filters before analysis by UPLC- ESI-QTOF-MS. […] A targeted screening strategy was applied to identify metabolites that could be present after consuming the citrus extracts. Twenty-eight possible compounds were browsed in all the samples. The list of compounds included the polyphenols present in the extracts, with particular focus on the flavanone rutinosides hesperidin and eriocitrin, their respective aglycones hesperetin, and eriodictyol, as well as their derived phase-II conjugates (glucuronides, sulfates, sulfoglucuronides, etc.). The exact mass of each proposed compound was extracted using an extraction window of 0.01 m/z. The metabolites hesperetin 7-O-glucuronide, hesperetin 3′-O-glucuronide, hesperetin 3-O-sulfate, naringenin 4′-O-glucuronide, and naringenin 7′-O-glucuronide were quantified with their corresponding standards. […] The parent phenolic compounds were quantified with their corresponding standards. In the case of some relevant conjugated metabolites, which standards were not available (eriodictyol and homoeriodictyol conjugates), their quantification was achieved by using relative response factors (RRFs) as previously described. Briefly, RRFs are useful to check the different responses of metabolites in the mass spectrometer vs. their UV signal. While the ionization response of free vs. conjugated forms is usually very different, their UV signal response is quite similar. To this purpose, we injected in a HPLC-DAD-ESI-Q (MS) the plasma samples (n = 5) with the highest concentrations of those conjugated metabolites. Concentrations were calculated by integrating the area from their corresponding UV peaks and compared with the UV peak area of a known concentration of their corresponding available parent compounds (eriodictyol and homoeriodictyol). The concentrations calculated were used to compare the MS response for each conjugated-aglycone pair.

[3] = Plasma metabolites and pharmacokinetics after single intake of lemon or orange extract (UPLC-ESI-QTOF-MS, non-compartmental analysis); type: in vivo, human; details: for Occurrence Plasma LE (number of volunteers in whom the metabolite was detected): after consuming lemon extract; for Occurrence Plasma LE (number of volunteers in whom the metabolite was detected) / Occurrence Plasma OE (number of volunteers in whom the metabolite was detected): n = 16 volunteers; for Occurrence Plasma OE (number of volunteers in whom the metabolite was detected): after consuming orange extract; for Tmax / Cmax / AUC(0-t): mean ± SD
Source text: Secondary endpoints involved the evaluation of post-prandial changes in several biomarkers dealing with metabolism, inflammation, and oxidative stress after a high-fat-high-sugars meal. The design was a randomized pharmacokinetic, double-blind, crossover, single-dose trial consisted of 2 test-phases. The volunteers were randomly allocated into two groups using a computerized random number list. Each group consumed one of the citrus extracts by following a test-phase that lasted for 1 day for blood sampling and urine collection, a 2-week washout period between each test phase, and crossover before consuming the other extract. The volunteers were instructed to avoid the consumption of flavanone-containing products, from a list provided by the researchers, for 1 week before the study and during the wash-out phase (citrus fruit juices, tomatoes, tomato-based sauces (like ‘ketchup’), peppers, almonds, etc.). […] The 3 capsules provided a total of 1.95 g orange extract, containing 260 mg hesperidin, and 3.1 g lemon extract, containing 260 mg eriocitrin. […] Plasma samples were obtained by centrifugation of peripheral venous blood at 14,000× g for 15 min at 4 °C and immediately frozen at −80 °C. Glucose, total cholesterol, HDL-cholesterol, LDL-cholesterol, triglycerides, insulin, homeostatic model assessment insulin resistance (HOMA-IR), gamma-glutamyl transferase (GGT), and alanine aminotransferase (ALT) were determined as previously reported. […] A previously validated method for analyzing phenolic metabolites in biological samples, including flavanone-derived metabolites, was used. […] After centrifugation at 14,000× g for 10 min at 4 °C, the supernatant was evaporated in a speed vacuum concentrator. Finally, samples were re-suspended in 100 µL of methanol, filtered through a 0.22 µm cellulose filters before analysis by UPLC- ESI-QTOF-MS. A targeted screening strategy was applied to identify metabolites that could be present after consuming the citrus extracts. Twenty-eight possible compounds were browsed in all the samples. The list of compounds included the polyphenols present in the extracts, with particular focus on the flavanone rutinosides hesperidin and eriocitrin, their respective aglycones hesperetin, and eriodictyol, as well as their derived phase-II conjugates (glucuronides, sulfates, sulfoglucuronides, etc.). The exact mass of each proposed compound was extracted using an extraction window of 0.01 m/z. The metabolites hesperetin 7-O-glucuronide, hesperetin 3′-O-glucuronide, hesperetin 3-O-sulfate, naringenin 4′-O-glucuronide, and naringenin 7′-O-glucuronide were quantified with their corresponding standards. […] The parent phenolic compounds were quantified with their corresponding standards. In the case of some relevant conjugated metabolites, which standards were not available (eriodictyol and homoeriodictyol conjugates), their quantification was achieved by using relative response factors (RRFs) as previously described. Briefly, RRFs are useful to check the different responses of metabolites in the mass spectrometer vs. their UV signal. While the ionization response of free vs. conjugated forms is usually very different, their UV signal response is quite similar. To this purpose, we injected in a HPLC-DAD-ESI-Q (MS) the plasma samples (n = 5) with the highest concentrations of those conjugated metabolites. Concentrations were calculated by integrating the area from their corresponding UV peaks and compared with the UV peak area of a known concentration of their corresponding available parent compounds (eriodictyol and homoeriodictyol). The concentrations calculated were used to compare the MS response for each conjugated-aglycone pair. Statistical analyses were carried out using the SPSS Software, version 23.0 (SPSS Inc., Chicago, IL, USA). Data are expressed as mean ± SD. The empirical distribution of data with the normality assumption was tested with the Shapiro-Wilk test. […]

[4] = lemon extract (3.1 g, 260 mg eriocitrin)
[5] = orange extract (1.95 g, 260 mg hesperidin)
[6] = after orange (hesperidin) extract
[7] = human, oral, 1.95 g, after orange (hesperidin) extract
[8] = human, oral, 1.95 g, after orange (hesperidin) extract, read-out: AUC0-t
[9] = human, oral, 1.95 g, after orange (hesperidin) extract, read-out: Tmax
[10] = human, oral, 3.1 g, after lemon extract
[11] = human, oral, 3.1 g, after lemon extract, read-out: AUC0-t
[12] = human, oral, 3.1 g, after lemon extract, read-out: Tmax

C[C@@H]1O[C@@H](OC[C@H]2O[C@@H](Oc3cc(O)c4c(c3)O[C@H](c3ccc(O)c(O)c3)CC4=O)[C@H](O)[C@@H](O)[C@@H]2O)[C@H](O)[C@H](O)[C@H]1O [eriocitrin, Eriocitrin]
Solubility [1]: higher solubility

Hesperetin sulfoglucuronide [M11]
Occurrence Urine LE (number of volunteers in whom the metabolite was detected) [2]: 0 | Occurrence Urine OE (number of volunteers in whom the metabolite was detected) [2]: 7 | Occurrence Plasma LE (number of volunteers in whom the metabolite was detected) [3]: 0 | Occurrence Plasma OE (number of volunteers in whom the metabolite was detected) [3]: 8

Eriodictyol sulfoglucuronide [M9]
Occurrence Urine LE (number of volunteers in whom the metabolite was detected) [2]: 5 | Occurrence Urine OE (number of volunteers in whom the metabolite was detected) [2]: 0 | Occurrence Plasma LE (number of volunteers in whom the metabolite was detected) [3]: 15 | Occurrence Plasma OE (number of volunteers in whom the metabolite was detected) [3]: 0

COc1ccc(C2CC(=O)c3c(O)cc(OC4OC(C(=O)O)C(O)C(O)C4O)cc3O2)cc1O (centres unmarked) [M7, Hesperetin 7-O-glucuronide]
Urinary excretion F1 [2, 4]: 1.2 ± 1.4 µg/mg creatinine | Urinary excretion Total F ([2]; lemon extract): 8.5 ± 9.2 µg/mg creatinine | Urinary excretion F2 ([2]; lemon extract): 4.0 ± 4.7 µg/mg creatinine | Urinary excretion F3 ([2]; lemon extract): 2.7 ± 2.5 µg/mg creatinine | Urinary excretion F4 ([2]; lemon extract): 0.6 ± 0.6 µg/mg creatinine | Urinary excretion F1 [2, 5]: 0.2 ± 0.6 µg/mg creatinine | Urinary excretion Total F ([2]; orange extract): 5.6 ± 13.2 µg/mg creatinine | Urinary excretion F2 ([2]; orange extract): 2.1 ± 5.7 µg/mg creatinine | Urinary excretion F3 ([2]; orange extract): 2.2 ± 3.6 µg/mg creatinine | Urinary excretion F4 ([2]; orange extract): 1.1 ± 3.3 µg/mg creatinine | Urinary excretion after lemon extract vs. orange extract ([2]; ratio lemon / orange extract intake): around 2 fold | Occurrence Urine LE (number of volunteers in whom the metabolite was detected) [2]: 16 | Occurrence Urine OE (number of volunteers in whom the metabolite was detected) [2]: 16 | Occurrence Plasma LE (number of volunteers in whom the metabolite was detected) [3]: 16 | Occurrence Plasma OE (number of volunteers in whom the metabolite was detected) [3]: 16 | Tmax ([3]; after lemon extract): 6.3 ± 2.0 h | Tmax [3, 6]: 8.3 ± 1.6 h | Cmax [3, 7]: 49.6 ± 51.7 nM | AUC(0-t) [3, 8]: 0.177 ± 0.249 µM·h | Tmax [3, 9]: 8.5 h | Cmax [3, 10]: 169 ± 109 nM | AUC(0-t) [3, 11]: 0.703 ± 0.591 µM·h | Tmax [3, 12]: 6.5 h

Eriodictyol sulfate [M13]
Urinary excretion F1 [2, 4]: 4.6 ± 5.0 µg/mg creatinine | Urinary excretion Total F ([2]; lemon extract): 32.6 ± 36.5 µg/mg creatinine | Urinary excretion F2 ([2]; lemon extract): 14.6 ± 17.3 µg/mg creatinine | Urinary excretion F3 ([2]; lemon extract): 11.9 ± 12.6 µg/mg creatinine | Urinary excretion F4 ([2]; lemon extract): 1.5 ± 1.5 µg/mg creatinine | Urinary excretion F1 [2, 5]: 0.02 ± 0.01 µg/mg creatinine | Urinary excretion Total F ([2]; orange extract): 0.6 ± 0.9 µg/mg creatinine | Urinary excretion F2 ([2]; orange extract): 0.1 ± 0.1 µg/mg creatinine | Urinary excretion F3 ([2]; orange extract): 0.2 ± 0.4 µg/mg creatinine | Urinary excretion F4 ([2]; orange extract): 0.3 ± 0.4 µg/mg creatinine | Occurrence Urine LE (number of volunteers in whom the metabolite was detected) [2]: 16 | Occurrence Urine OE (number of volunteers in whom the metabolite was detected) [2]: 12 | Occurrence Plasma LE (number of volunteers in whom the metabolite was detected) [3]: 16 | Occurrence Plasma OE (number of volunteers in whom the metabolite was detected) [3]: 10 | AUC(0-t) ([3]; after lemon extract): 6.12 ± 6.631 µM·h | Cmax ([3]; after lemon extract): 1710 ± 1510 nM | Tmax ([3]; after lemon extract): 5.7 ± 2.5 h

Homoeriodictyol glucuronide [M6]
Urinary excretion F1 [2, 4]: 13.9 ± 16.2 µg/mg creatinine | Urinary excretion Total F ([2]; lemon extract): 106 ± 171 µg/mg creatinine | Urinary excretion F2 ([2]; lemon extract): 48.1 ± 90.0 µg/mg creatinine | Urinary excretion F3 ([2]; lemon extract): 37.2 ± 56.9 µg/mg creatinine | Urinary excretion F4 ([2]; lemon extract): 6.8 ± 8.0 µg/mg creatinine | Occurrence Urine LE (number of volunteers in whom the metabolite was detected) [2]: 16 | Occurrence Urine OE (number of volunteers in whom the metabolite was detected) [2]: 3 | Occurrence Plasma LE (number of volunteers in whom the metabolite was detected) [3]: 16 | Occurrence Plasma OE (number of volunteers in whom the metabolite was detected) [3]: 3 | AUC(0-t) ([3]; after lemon extract): 3.133 ± 4.17 µM·h | Cmax ([3]; after lemon extract): 780 ± 863 nM | Tmax ([3]; after lemon extract): 6.1 ± 2.4 h

O=C1CC(c2ccc(OC3OC(C(=O)O)C(O)C(O)C3O)cc2)Oc2cc(O)cc(O)c21 (centres unmarked) [M5, Naringenin 4′-O-glucuronide]
Urinary excretion F1 [2, 4]: 0.8 ± 0.5 µg/mg creatinine | Urinary excretion Total F ([2]; lemon extract): 4.2 ± 5.0 µg/mg creatinine | Urinary excretion F2 ([2]; lemon extract): 1.7 ± 2.7 µg/mg creatinine | Urinary excretion F3 ([2]; lemon extract): 1.3 ± 1.5 µg/mg creatinine | Urinary excretion F4 ([2]; lemon extract): 0.4 ± 0.3 µg/mg creatinine | Urinary excretion F1 [2, 5]: 0.1 ± 0.1 µg/mg creatinine | Urinary excretion Total F ([2]; orange extract): 1.0 ± 1.5 µg/mg creatinine | Urinary excretion F2 ([2]; orange extract): 0.3 ± 0.5 µg/mg creatinine | Urinary excretion F3 ([2]; orange extract): 0.3 ± 0.4 µg/mg creatinine | Urinary excretion F4 ([2]; orange extract): 0.3 ± 0.5 µg/mg creatinine | Occurrence Urine LE (number of volunteers in whom the metabolite was detected) [2]: 16 | Occurrence Urine OE (number of volunteers in whom the metabolite was detected) [2]: 16 | Occurrence Plasma LE (number of volunteers in whom the metabolite was detected) [3]: 16 | Occurrence Plasma OE (number of volunteers in whom the metabolite was detected) [3]: 14 | Tmax ([3]; after lemon extract): 5.7 ± 2.3 h | Tmax [3, 6]: 7.7 ± 2.0 h | Cmax [3, 7]: 7.3 ± 5.9 nM | AUC(0-t) [3, 8]: 0.0267 ± 0.0277 µM·h | Tmax [3, 9]: 7.5 h | Cmax [3, 10]: 35.8 ± 25.9 nM | AUC(0-t) [3, 11]: 0.129 ± 0.124 µM·h | Tmax [3, 12]: 5.5 h
